# In article PMC10391610, “Survivin prevents the polycomb repressor complex 2 from methylating histone 3 lysine 27” (iScience, 2023):
# Molecular target: T1, survivin (Homo sapiens, UniProt O15392)
# T1 construct: transferred to the survivin1-142 construct used in the present study; His8 tag (pHIS8 vector, thrombin-cleavable); made in house; host or cells: E. coli BL21(DE3) star
# Experiment: PEPperCHIP peptide microarray, survivin interaction
# Assay type: binding
# Settings: 1 μg/mL survivin
# Description: We were looking for potential direct interactions between survivin and short peptide sequences originating from PRC2 subunits and other proteins involved in histone modifications based on the in vivo results. Therefore, we created a peptide microarray of overlapping peptides obtained from EZH2, EED, SUZ12, and JARID2 to investigate how survivin interacts with the activity of the PRC2 complex. These subunits form the core of PRC2, and the interaction of survivin with the PRC2 molecular scaffold indicates a potentially disruptive role for survivin in PRC2 function. The fluorescence signal generated by labeled survivin is compared in Figure 2 as a function of position along the polypeptide chain of PRC2 subunits. Figure S1 depicts the raw fluorescence images. Moreover, the microarray fluorescence intensities projected on the three-dimensional structure of the PRC2 core complex are shown in Figure 3. The whole dataset is deposited at the Zenodo data base.
# The location of survivin on the peptide microarray was clearly correlated with the amino acid content of the peptide at 1 μg/mL survivin concentration. When evaluating how accurate the predictions were, one should keep in mind that the primary and higher-order structures of the peptide were not at all considered in this analysis. Mislabeling peptides is possible for multiple reasons. The smallest fluorescence signal was chosen as the limit of detection and photon-counting errors may cause weak interactions to be undetected at low fluorescence intensities. Moreover, if the fluorescence intensity of experimental duplicates varied by more than 40%, a peptide was classified as non-interacting even if the lack of reproducibility is ambiguous evidence for the lack of interaction. […] Reducing the number of hidden layer perceptrons from 100 (the default value) to 9 had no effect on the classifier’s performance. Even a 15 amino acid peptide segment composition gives a high degree of uniqueness and highly scalable intensity for survivin-peptide interaction. Survivin has a non-globular structure with no deep binding pockets.
# A peptide microarray was designed using the protein sequences from: Cdk1 (P06493), KAT2A/GCN5 (Q92830), SPI1/PU1 (P17947), SUZ12 (Q15022), EED (O75530), JADE3 (Q92613), DIABLO/SMAC (Q9NR28), BOREALIN (Q53HL2), INCENP (Q9NQS7), SGOL1 (Q5FBB7), SGOL2 (Q562F6), EZH2 (Q15910), JARID2 (Q92833), Histone H3 (P68431), AURORAKB (Q96GD4), JADE1 (Q6IE81), JTB (O76095), EVI5 (O60447), RAN (P62826), USP9X (Q93008), C-IAP1 (Q13490), STAT3 (P40763), BRUCE/APOLLON (Q9NR09), XPO1 (O14980), CDX2 (Q99626), Msx2 (P35548), RBM15 (Q96T37), PHF21A (Q96BD5), PHF8 (Q9UPP1), DIDO (Q9BTC0), JADE2 (Q9NQC1) and HASPIN (Q8TF76). The Uniprot ID is shown in parenthesis. The protein sequences were divided into 15 amino acid long peptides with a 10 amino acid overlap. To investigate background interactions with the protein-derived peptides that could interfere with the main assays, one of the PEPperCHIP Peptide Microarrays (PEPperPRINT Gmbh) was pre-staining with the secondary 6x His Tag Antibody DyLight680 antibody at a dilution of 1:1000 and with the monoclonal anti-HA (12CA5)-DyLight800 control antibody at a dilution of 1:1000. Subsequent incubation of other peptide microarray copies with survivin at a concentration of 1 μg/ml in incubation buffer was followed by staining with the secondary 6x His Tag Antibody DyLight680 antibody (Rockland Immunochemicals, Pottstown, PA, USA) and the monoclonal anti-HA (12CA5)-DyLight800 control antibody (Rockland Immunochemicals, Pottstown, PA, USA). The read-out was performed by scanning intensities of 7/7 (red/green). As an internal quality control, HA and His tag control peptides were stained simultaneously to confirm assay quality and to facilitate grid alignment for data quantification. The LI-COR Odyssey Imaging System was used for read-out, and the PepSlide Analyzer was used for quantification of spot intensities and peptide annotation. […]
# T1 sequence (O15392 whole entry): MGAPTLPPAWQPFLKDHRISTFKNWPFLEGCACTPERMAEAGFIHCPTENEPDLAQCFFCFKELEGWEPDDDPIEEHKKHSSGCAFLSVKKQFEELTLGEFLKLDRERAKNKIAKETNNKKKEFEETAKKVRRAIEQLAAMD
sequence,measurement,setting,value
"VELVNALGQYNDDDDDDDGD DPEEREEKQKDLEDHRDDKE [EZH2_172-211, PRC2-derived peptide, EZH2 residues 172–211, synthesized by Biomatik]",Average FI (%),"anti-His tag DyLight680 read-out, percentage of maximum fluorescence intensity units (64193) per peptide, 15-mer microarray peptides covering the residues",71%
same,Integrated FI,"in units of the maximum FI per peptide, 15-mer microarray peptides covering the residues",4.28
same,survivin interaction / fluorescence on microarray (in words),peptide microarray,high survivin-associated fluorescence intensity
